In brackets after ≈: the same amount, converted by molar mass.

The test system of assay [1] is P. aeruginosa A9843A. Kind of assay: In vivo antibacterial activity in infected mice, P. aeruginosa A9843A. As to conditions: Pseudomonas aeruginosa, im, read-out: PD50, P. aeruginosa A9843A. On the procedure: (§1) In vivo antibacterial activity was determined against three bacterial infections (S. aureus Smith, E. coli Juhl and P. aeruginosa A98483A) by intramuscular administration to mice just after the bacterial challenge. PD50 values are summarized in Table 2 in comparison with the MIC values against the corresponding organisms.

The subject of assay [2] is S. aureus Smith. Kind of assay: In vivo antibacterial activity in infected mice, S. aureus Smith. As to conditions: Staphylococcus aureus, im, just after the bacterial challenge, read-out: PD50, S. aureus Smith. On the procedure: as §1
Assay [3] deals with Penicillin(PC)-sensitive S. aureus (5 strains). In words: MIC by two-fold serial agar dilution, group Gp-Ia. The format is cell-based. As to conditions: Staphylococcus aureus, Gp-Ia (5 strains), Mueller-Hinton agar, read-out: Geometric mean of MIC, Gp-Ia. Here is the method:
(§2) Minimum inhibitory concentrations (MICs) for the compounds in the above examples were determined against thirty two strains of test organisms by a two-fold serial agar dilution method in Mueller-Hinton agar. Geometric means of MICs were calculated against six groups of the test organisms which are classified as follows and summarized in Table 1.
Gp-Ia Penicillin(PC)-sensitive S. aureus (5 strains).
(In general: In agar dilution, organisms are placed on agar that contains the substance at set levels.)

In assay [4] the test system is E. coli Juhl. Kind of assay: In vivo antibacterial activity in infected mice, E. coli Juhl. To be noted: Escherichia coli, im, just after the bacterial challenge, read-out: PD50, E. coli Juhl. Here is the method: as §1
Assay [5] deals with E. coli Juhl. In words: MIC against E. coli Juhl. As to conditions: Escherichia coli. The format is cell-based. Here is the method:
as §2, §1

For assay [6], the system named is P. aeruginosa A9843A. In words: MIC against P. aeruginosa A9843A. In kind it is cell-based. As to conditions: Pseudomonas aeruginosa, read-out: MIC, P. aeruginosa A9843A. On the procedure: as §2, §1
Assay [7] deals with Ps. aeruginosa (7). Kind of assay: MIC by two-fold serial agar dilution, group Gn-III. As to conditions: Pseudomonas aeruginosa, Gn-III (7), Mueller-Hinton agar, read-out: Geometric mean of MIC, Gn-III. The format is cell-based. Here is the method: as §2
Gn-III Ps. aeruginosa (7).

Assay [8] deals with Cephalothin(CET)-sensitive E. coli (2), Kl. pneumoniae (1) and Pr. mirabilis (2). Kind of assay: MIC by two-fold serial agar dilution, group Gn-Ia. The format is cell-based. As to conditions: Gn-Ia (5), Mueller-Hinton agar, read-out: Geometric mean of MIC, Gn-Ia. Here is the method: as §2
Gn-Ia Cephalothin(CET)-sensitive E. coli (2), Kl.
pneumoniae (1) and Pr. mirabilis (2).

In assay [9] the test system is M. morganii (1), Ent. cloacae (2) and Ser. marcescens (2). In words: MIC by two-fold serial agar dilution, group Gn-II. In kind it is cell-based. To be noted: Gn-II (5), Mueller-Hinton agar, read-out: Geometric mean of MIC, Gn-II. On the procedure:
as §2
Gn-II M. morganii (1), Ent. cloacae (2) and Ser.

The test system of assay [10] is S. aureus Smith. In words: MIC against S. aureus Smith. In kind it is cell-based. As to conditions: Staphylococcus aureus. On the procedure:
as §2, §1

Assay [11] has as its system Penicillin(PC)-resistant S. aureus (5). In words: MIC by two-fold serial agar dilution, group Gp-Ib. To be noted: Staphylococcus aureus, Gp-Ib (5), Mueller-Hinton agar, read-out: Geometric mean of MIC, Gp-Ib. The format is cell-based. Here is the method:
as §2
Gp-Ib Penicillin(PC)-resistant S. aureus (5).

Assay [12] concerns Cephalothin(CET)-resistant E. coli (3) and Kl. pneumoniae (2). Kind of assay: MIC by two-fold serial agar dilution, group Gn-Ib. In kind it is cell-based. To be noted: Escherichia coli, read-out: Geometric mean of MIC, Gn-Ib. Here is the method:
as §2
Gn-Ib Cephalothin(CET)-resistant E. coli (3) and Kl.

Regarding `C[N+]1(CC2=C(C(=O)[O-])N3C(=O)C(NC(=O)C(=NOC(C(=O)O)c4ccc(O)c(O)c4)c4csc(N)n4)C3SC2)CCCC1` (stereo not drawn) [Ia, 7-[(2-(2-Aminothiazol-4-yl)-2[(Z)-[carboxy(3,4-dihydroxyphenyl)methyl]oxyimino]acetamido]-3-(1-methylpyrrolidinio)methyl-3-cephem-4-carboxylate], the ED50 stood at 6.3 mg/kg in assay [1], 5.6 mg/kg in assay [2] and 0.14 mg/kg in assay [4]. The MIC in assay [3] was 1.4 µg/mL (≈ 2.21 µM); in assay [5], 0.2 µg/mL (≈ 0.316 µM); in [6], 1.6 µg/mL (≈ 2.53 µM); in assay [7] it was 1.6 µg/mL (≈ 2.53 µM); in assay [8] it was 0.3 µg/mL (≈ 0.474 µM); in assay [9], 0.8 µg/mL (≈ 1.26 µM). The MIC in assay [10] was 1.6 µg/mL (≈ 2.53 µM); in assay [11] it was 3.1 µg/mL (≈ 4.9 µM); in assay [12], 0.4 µg/mL (≈ 0.632 µM).

With `C/C=C\C1=C(C(=O)O)N2C(=O)C(NC(=O)/C(=N\OC(C(=O)O)c3ccc(O)c(O)c3)c3csc(N)n3)C2SC1` (stereo not drawn) [Ib], the ED50 in [1] turned out to be 17 mg/kg; in assay [2], 6.8 mg/kg; in [4], 1.5 mg/kg. In addition, the MIC in assay [3] was determined as 0.92 µg/mL (≈ 1.6 µM); in [5], 0.4 µg/mL (≈ 0.695 µM); in assay [6] it was 3.1 µg/mL (≈ 5.39 µM); in assay [7], 5.1 µg/mL (≈ 8.86 µM); in assay [8] it was 0.17 µg/mL (≈ 0.295 µM); in assay [9], 7.3 µg/mL (≈ 12.7 µM). In addition, the MIC in assay [10] is 0.8 µg/mL (≈ 1.39 µM); in [11], 2.1 µg/mL (≈ 3.65 µM); in assay [12] it was 0.35 µg/mL (≈ 0.608 µM).

`Nc1nc(/C(=N/OC(C(=O)O)c2ccc(O)c(O)c2)C(=O)NC2C(=O)N3C(C(=O)[O-])=C(/C=C/C[n+]4ccccc4)CSC23)cs1` (stereo not drawn) [Ic]: the figures for the ED50 in [1], in assay [2] and in assay [4] were 12 mg/kg, 1.4 mg/kg and 0.067 mg/kg, respectively. The MIC in [3] came out at 0.26 µg/mL (≈ 0.398 µM); in assay [5], 0.05 µg/mL (≈ 0.0766 µM); in [6], 3.1 µg/mL (≈ 4.75 µM); in [7], 2.3 µg/mL (≈ 3.52 µM); in [8] it was 0.076 µg/mL (≈ 0.116 µM); in [9], 0.46 µg/mL (≈ 0.705 µM). Also, the MIC turned out to be 0.4 µg/mL (≈ 0.613 µM) in assay [10], 0.4 µg/mL (≈ 0.613 µM) in [11] and 0.15 µg/mL (≈ 0.23 µM) in assay [12].

With `Nc1nc(/C(=N/OCc2cc(O)c(O)cc2C(=O)O)C(=O)NC2C(=O)N3C(C(=O)[O-])=C(/C=C/C[n+]4ccccc4)CSC23)cs1` (stereo not drawn) [Id], the figures for the ED50 in assay [1], in assay [2] and in assay [4] were 7.2 mg/kg, 1 mg/kg and 0.017 mg/kg, respectively. The MIC in assay [3] came out at 0.61 µg/mL (≈ 0.935 µM); in assay [5], 0.1 µg/mL (≈ 0.153 µM); in [6], 0.8 µg/mL (≈ 1.23 µM); in [7], 0.88 µg/mL (≈ 1.35 µM); in [8], 0.087 µg/mL (≈ 0.133 µM); in assay [9], 0.46 µg/mL (≈ 0.705 µM). The MIC came out at 0.8 µg/mL (≈ 1.23 µM) in assay [10], 1.6 µg/mL (≈ 2.45 µM) in [11] and 0.17 µg/mL (≈ 0.26 µM) in assay [12].

As to `C[N+]1(CC2=C(C(=O)[O-])N3C(=O)C(NC(=O)/C(=N\OC(C(=O)O)c4ccc(O)c(O)c4)c4csc(N)n4)[C@H]3SC2)Cc2cc(O)c(O)cc2C1` (stereo partly drawn) [Ie, 7-[2-(2-Aminothiazol-4-yl)-2-[(Z)-[carboxy(3,4-dihydroxy-phenyl)methyl]oxyimino]acetamido]-3-(5,6-dihydroxy-2-methyl-2-isoindolinio)methyl-3-cephem-4-carboxylate], the ED50 in [1] worked out at 2.1 mg/kg; in [2], 2.4 mg/kg; in assay [4], 0.045 mg/kg. Also, the MIC in assay [3] was determined as 8.3 µg/mL (≈ 11.6 µM); in assay [5], 0.8 µg/mL (≈ 1.12 µM); in assay [6], 0.4 µg/mL (≈ 0.561 µM); in [7], 0.3 µg/mL (≈ 0.421 µM); in [8], 0.46 µg/mL (≈ 0.645 µM); in assay [9], 1.6 µg/mL (≈ 2.24 µM). For the same compound, the figures for the MIC in [10], in assay [11] and in assay [12] were 12.5 µg/mL (≈ 17.5 µM), 13 µg/mL (≈ 18.2 µM) and 0.46 µg/mL (≈ 0.645 µM), respectively.

As usually defined, the MIC is the least concentration at which growth counts as inhibited.

The record behind these values is patent US5095012A, “Antibiotic C-7 catechol-substituted cephalosporin compounds, compositions, and method of use thereof” (Bristol-Myers Squibb Company, priority 1990, dated 1992).
